How the values were obtained:
Type in all cases: in vivo
[1] = tested on: hard ticks (Ixodea pacificus and Dermacentor albipietus); assay: Tick treated filter paper test, hard ticks
Procedure: (§1) In a double blind experiment, filter papers (90 mm) (Whatman) were treated to uniform saturation with 1 ml of test formula and placed in 90 mm petri dishes. Ten arachnids were placed in each petri dish and the dish closed. Observations of mortality were made at 30 minutes, 1 hour, 3 hours, 6 hours, 12 hours and 24 hours. The cinnamic aldehyde concentrations varied from 10-50,000 ppm in a vehicle of 2% Tween 80, 6% NaHCO3. The effect of vehicle alone or H2O (HPLC) was also tested. In separate experiments, the effects of the components of the vehicle were evaluated in comparison to water.

[2] = tested on: larvae of Culex quinquefasciatus mosquito; assay: Mosquito larvicidal bioassay
Procedure: Larvicidal activity of test formulations at varying concentrations was tested in a double blind bioassay on larvae of Culex quinquefasciatus mosquito. Twenty-five late 3rd-instar larvae of Culex quinquefasciatus were placed in 100×80 mm Purex #3250 glass containers. 250 ml distilled H2O was pipetted into the containers. One ml of test formulation containing 10 to 25,000 ppm cinnamic aldehyde in vehicle (2% by volume Tween 80 and 6% sodium bicarbonate in distilled H2O) was pipetted into each container. A control blank using 1 ml distilled H2O instead of a test formulation was also prepared.
All treated and untreated glass containers were placed in temperature controlled room at 29° C. Each container was evaluated for larvae mortality at 24 hour intervals. The number of dead larvae were reported. See Table 5 for results of the bioassay. Concentrations above 5,000 ppm cinnamic aldehyde gave 90% mortality at 24 and 48 hours.

[3] = tested on: adult Aedes aegypti mosquitos; assay: Mosquito adulticide treated filter paper test
Procedure: The toxicity of the formulation for mosquitos was determined using adult Aedes aegypti mosquitos from the University of California Mosquito Control Research Laboratory at the Kearney Agricultural Center. The experiments were performed as double blind studies.
One ml test formulation was pipetted onto 11 cm #2 Whatman filter paper circle cut to fit shell vials (84 mm×23 mm) which was air dried at room temperature for two hours and placed in a shell vial (84 mm×23 mm). Twenty unblooded adult female mosquitos approximately four days of age were aspirated using gentle suction into each shell vial. The open end of the vial was covered with 1 mm nylon mesh and filter paper cut to fit for complete coverage from an 11 cm #2 Whatman filter paper circle. The vials were placed in a polyethylene mosquito bag (46 cm×20 cm) with a wet paper towel inside and loosely sealed. The bag was gently inflated by gently blowing in air and placed in an incubator at 22° C. for 24 hours with a day light cycle (14 hrs light; 10 hrs dark). Untreated paper and paper treated with H2O were used as controls. Mortality was determined by counting the number of dead mosquitos.
The efficacy of various concentrations of cinnamic aldehyde in a formulation of 2% Tween 80, 6% NaHCO3 was tested, using concentrations of cinnamic aldehyde ranging from 25,000 ppm to 10 ppm with and without the addition of saponin, 1:60 dilution of a 10° Brix solution. At concentrations down to 100 ppm added to the filter paper, 100% of the mosquitos were killed. At 10 ppm added to the filer paper, 78% of the mosquitos were killed in the absence of saponin, but only 5% with saponin 14% of mosquitos were killed with the addition of 2% Tween 80 and 6% NaHCO3 alone to the filter paper and 50% with the further addition of a 1:60 dilution 10° Brix saponin. The percent mortality is the average of three replications, with corrections for control mortality. Malathion was used as a positive control.

[4] = tested on: soft tick (Ornithodoros coriaceus); assay: Tick treated filter paper test, soft ticks
Procedure: as §1, with “Observations of mortality were made at 30 minutes, 1 hour, 3 hours, 6 hours, 12 hours and 24 hours.” left out

[5] = 1 ml of 100 ppm formulation in 250 ml H2O
[6] = 1 ml of 2,500 ppm formulation in 250 ml H2O
[7] = 1 ml of 5,000 ppm formulation in 250 ml H2O
[8] = 1 ml of 12,500 ppm formulation in 250 ml H2O
[9] = 1 ml of 25,000 ppm formulation in 250 ml H2O
[10] = 24 h, read-out: Percent Mortality CNMA (PGXL)
[11] = 10 ppm in 2% Tween 80 and 6% NaHCO3
[12] = 100 ppm in 2% Tween 80 and 6% NaHCO3
[13] = 2,500 ppm in 2% Tween 80 and 6% NaHCO3
[14] = 5,000 ppm in 2% Tween 80 and 6% NaHCO3
[15] = 12,500 ppm in 2% Tween 80 and 6% NaHCO3
[16] = 25,000 ppm in 2% Tween 80 and 6% NaHCO3

**Q.** `O=C/C=C/c1ccccc1` [CNMA, cinnamic aldehyde] was tested. Which mortality ([1]; 2500 ppm in vehicle (2% Tween 80, 6% NaHCO3), in 24 hours, preliminary experiments) did it give?
**A.** The mortality was 100%.

**Q.** And the effect on mortality ([1]; concentrations below 2500 in vehicle)?
**A.** Its effect on mortality is “no effect on mortality”.

**Q.** What about the “Percent Mortality (time) 24 hours” value ([2]; 1 ml of 10 ppm formulation (2% Tween 80, 6% sodium bicarbonate) in 250 ml H2O) of the same compound?
**A.** The value was 0%.

**Q.** What about the “Percent Mortality (time) 48 hours” value ([2]; 1 ml of 10 ppm formulation in 250 ml H2O) of the same compound?
**A.** Its value is 0%.

**Q.** And the “Percent Mortality (time) 24 hours” value [2, 5]?
**A.** The value was 2%.

**Q.** What about the “Percent Mortality (time) 48 hours” value [2, 5] of the same compound?
**A.** The value was 2%.

**Q.** What about the “Percent Mortality (time) 24 hours” value [2, 6] of the same compound?
**A.** The value was 4%.

**Q.** And the “Percent Mortality (time) 48 hours” value [2, 6]?
**A.** Its value is 4%.

**Q.** And the “Percent Mortality (time) 24 hours” value [2, 7]?
**A.** The value was 8%.

**Q.** What about the “Percent Mortality (time) 48 hours” value [2, 7] of the same compound?
**A.** Its value is 20%.

**Q.** What about the “Percent Mortality (time) 24 hours” value [2, 8] of the same compound?
**A.** The value was 90%.

**Q.** And the “Percent Mortality (time) 48 hours” value [2, 8]?
**A.** The value was 90%.

**Q.** And the “Percent Mortality (time) 24 hours” value [2, 9]?
**A.** The value was 100%.

**Q.** What about the “Percent Mortality (time) 48 hours” value [2, 9] of the same compound?
**A.** Its value is 100%.

**Q.** What about the mortality ([2]; concentrations above 5,000 ppm, at 24 and 48 hours) of the same compound?
**A.** Its mortality is 90%.

**Q.** And the mosquitos killed ([3]; 10 ppm added to the filter paper, in the absence of saponin)?
**A.** The mosquitos killed was 78%.

**Q.** What about the mosquitos killed ([3]; 10 ppm added to the filter paper, with saponin) of the same compound?
**A.** Its mosquitos killed is 5%.

**Q.** And the mortality at 10 ppm [3, 10]?
**A.** The mortality at 10 ppm was 78%.

**Q.** And the mortality at 100 ppm [3, 10]?
**A.** Its mortality at 100 ppm is 100%.

**Q.** And the mortality at 2500 ppm [3, 10]?
**A.** The mortality at 2500 ppm was 95%.

**Q.** And the mortality at 5000 ppm [3, 10]?
**A.** The mortality at 5000 ppm was 100%.

**Q.** And the mortality at 12500 ppm [3, 10]?
**A.** Its mortality at 12500 ppm is 100%.

**Q.** And the mortality at 25000 ppm [3, 10]?
**A.** The mortality at 25000 ppm was 100%.

**Q.** What about the mosquitos killed ([3]; concentrations down to 100 ppm added to the filter paper) of the same compound?
**A.** Its mosquitos killed is 100%.

**Q.** And the “Number Dead 24 Hours (#/30)” value [4, 11]?
**A.** Its value is 0 #/30.

**Q.** And the “Number Dead 120 Hours (#/30)” value [4, 11]?
**A.** Its value is 0 #/30.

**Q.** And the “Number Dead 24 Hours (#/30)” value [4, 12]?
**A.** Its value is 0 #/30.

**Q.** And the “Number Dead 120 Hours (#/30)” value [4, 12]?
**A.** The value was 0 #/30.

**Q.** What about the “Number Dead 24 Hours (#/30)” value [4, 13] of the same compound?
**A.** The value was 2/30.

**Q.** What about the “Number Dead 120 Hours (#/30)” value [4, 13] of the same compound?
**A.** Its value is 6/30.

**Q.** And the “Number Dead 24 Hours (#/30)” value [4, 14]?
**A.** The value was 3/30.

**Q.** What about the “Number Dead 120 Hours (#/30)” value [4, 14] of the same compound?
**A.** The value was 6/30.

**Q.** What about the “Number Dead 24 Hours (#/30)” value [4, 15] of the same compound?
**A.** Its value is 5/30.

**Q.** What about the “Number Dead 120 Hours (#/10)” value [4, 15] of the same compound?
**A.** The value was 10/10.

**Q.** And the “Number Dead 120 Hours (#/30)” value [4, 15]?
**A.** Its value is 6/30.

**Q.** What about the “Number Dead 24 Hours (#/30)” value [4, 16] of the same compound?
**A.** The value was 7/30.

**Q.** And the “Number Dead 120 Hours (#/10)” value [4, 16]?
**A.** The value was 10/10.

**Q.** And the “Number Dead 120 Hours (#/30)” value [4, 16]?
**A.** Its value is 21/30.

**Q.** And the “Number Dead 120 Hours (#/10)” value ([4]; 30,000 ppm in 2% Tween 80 and 6% NaHCO3)?
**A.** The value was 10/10.

**Q.** And the “Number Dead 120 Hours (#/10)” value ([4]; 35,000 ppm in 2% Tween 80 and 6% NaHCO3)?
**A.** The value was 10/10.

**Q.** And the “Number Dead 120 Hours (#/10)” value ([4]; 40,000 ppm in 2% Tween 80 and 6% NaHCO3)?
**A.** The value was 10/10.

**Q.** What about the “Number Dead 120 Hours (#/10)” value ([4]; 45,000 ppm in 2% Tween 80 and 6% NaHCO3) of the same compound?
**A.** Its value is 10/10.

**Q.** And the “Number Dead 120 Hours (#/10)” value ([4]; 50,000 ppm in 2% Tween 80 and 6% NaHCO3)?
**A.** The value was 10/10.

**Q.** What about the mortality at 12500 ppm ([4]; Ornithodoros coriaceus) of the same compound?
**A.** Its mortality at 12500 ppm is 100%.

Source: patent publication US6750256B1, “Use of aromatic aldehydes as insecticides” (Proguard, Inc., priority 1994, dated 2004)
